The nature of this data set: RP, Waters ACQUITY UPLC BEH C18, 100 × 1 mm, 1.7 µm, 50 °C, 0.3 mL/min, estimated dead time 0.17 min; A: water + 0.1% formic acid + 20 mM ammonium formate; B: methanol + 0.1% formic acid + 20 mM ammonium formate; gradient (min/%B) 0/0 15/100 21/100 22/0 30/0. The following applies: stereoisomer not certain.
Consider `COc1ccc(NS(=O)(=O)c2ccc(N)cc2)nn1` [Sulfamethoxypyridazin], for which the LC retention time is 8.03 min.
Turning to `CCN(CCO)c1cccc(C)c1` [2-(N-Ethyl-N-m-toluidino)ethanol], the LC retention time is 6.13 min.
For `Cc1ccc(O)cc1` [4-Methylphenol], the LC retention time is 14.3 min.
`CCOP(=S)(OCC)SCCSCC` [Disulfoton]: the LC retention time is 16 min.
Take `O=C(O)c1ccc2ccccc2n1` [Quinaldic acid]: the LC retention time was 7.3 min.
As for `CC1=C(C(=O)Nc2ccccc2)SCCO1` [Carboxin], the figure is 11.9 min; as for `CCC(C(N)=O)N1CCCC1=O` (centres undefined) [levetiracetam], 6.9 min.
On to `COP(=O)(OC)OC` [Trimethyl phosphate], for which the LC retention time was 6.17 min.
As for `CC(=O)C1(C)CC2=C(CCCC2(C)C)CC1C` (centres undefined) [ISO E Super], the figure is 17.7 min; as for `C=CNc1nc(NC(C)(C)C)nc(SC)n1` [Terbutryn-desaturated], 14.3 min; as for `CCC=Nc1c([N+](=O)[O-])cc(C)c(C)c1[N+](=O)[O-]` [Pendimethalin-desethyl], 8.48 min.
In the case of `CC1=C(C(=O)Nc2ccccc2)CCCO1` [Pyracarbolid] it was 11.7 min.
In the case of `O=C(O)CCc1c[nH]c2ccccc12` [3-Indolepropionic acid] it was 11.7 min; in that of `CCCCCCCC(O)CC(=O)O` (centres undefined) [3-Hydroxycapric acid], 12.3 min.
For the compound `O=C1CCC2(O)C3Cc4ccc(O)c5c4C2(CCN3CC2CC2)C1O5` (centres undefined) [Naltrexon], the LC retention time is 5.88 min.
As for `CCC(C)C1OC2(C=CC1C)CC1CC(CC=C(C)C(OC3CC(OC)C(OC4CC(OC)C(O)C(C)O4)C(C)O3)C(C)C=CC=C3COC4C(O)C(C)=CC(C(=O)O1)C34O)O2` (centres undefined) [Avermectin B1a (Abamectin)], the figure is 18.1 min; as for `CCC(C(N)=O)(C(N)=O)c1ccccc1` [PEMA], 7.76 min; as for `CON=C(Cc1cccnc1)c1ccc(Cl)cc1Cl` [Pyrifenox], 14.3 min.
As for `CCNC(=O)c1cccc(C)c1` [N-Ethyl-3-methylbenzamide], the figure is 10.7 min; as for `COc1ccc(-c2coc3cc(O)ccc3c2=O)cc1` [Formononetin], 13.2 min.
As for `CCCSP(=O)(OCC)SCCC` [Ethoprophos], the figure is 15 min; as for `O=C(O)c1cc(Br)c(O)c(Br)c1` [3,5-Dibromo-4-hydroxybenzoic acid], 11.4 min.
With `O=C(O)C1OC(Oc2ccc3c(=O)c(-c4ccc(O)cc4)coc3c2)C(O)C(O)C1O` (centres undefined) [Daidzein_glucuronide], the LC retention time was 8.4 min.
In the case of `CC(C)(C)Nc1nc(=O)[nH]c(=O)[nH]1` it was 13.3 min; in that of `CC(=O)N1N=C(c2ccc(N)cc2)c2cc3c(cc2CC1C)OCO3` (centres undefined) [Talampanel], 11.5 min.
As for `O=c1ccn(C2OC(CO)C(O)C2(F)F)c(=O)[nH]1` (centres undefined) [2',2'-Difluoro-2'-deoxyuridine], the figure is 4.8 min; as for `Cc1cc(-n2nc3ccc(Cl)cc3n2)c(O)c(C(C)(C)C)c1` [UV-326], 17.6 min; as for `CC(C)CC(C)OC(=O)c1ccccc1C(=O)OC(C)CC(C)C` (centres undefined) [Bis(4-methyl-2-pentanyl)phthalate], 18.2 min.
As for `CC(C)OC(=O)Nc1ccccc1` [Propham], the figure is 12.7 min; as for `Cc1ccc(N)cc1Cl` [3-Chloro-4-methylaniline], 10.1 min; as for `CC(=O)C1CCC2C3CC=C4CC(O)CCC4(C)C3CCC12C` (stereo not drawn) [5-Pregnen-3.beta.-ol-20-one], 15.2 min.
With `O=C(O)c1cc(=O)c2cccc(O)c2[nH]1` [Xanthurenic acid], the LC retention time is 6.8 min.
Turning to `OCCc1c[nH]c2ccccc12` [3-(2-Hydroxyethyl)indole], the LC retention time is 7 min.
As for `CON(C)C(=O)Nc1ccc(Cl)cc1` [Monolinuron], the figure is 12.2 min.
On to `Nc1ccc(Cl)cc1Cl` [2,4-Dichloroaniline], for which the LC retention time is 17.6 min.
Take `NCCc1ccc(OC2OC(C(=O)O)C(O)C(O)C2O)c(O)c1` (centres undefined) [dopamine_glucuronide]: the LC retention time was 9.2 min.
For `NC(Cc1ccccc1)C(=O)O` (centres undefined) [phenylalanine], the LC retention time is 4.7 min.
As for `CC(=O)OCC(=O)C12OC(C)(C)OC1CC1C3CC(F)C4=CC(=O)C=CC4(C)C3(F)C(O)CC12C` (centres undefined) [Fluocinonide], the figure is 14.6 min.
In the case of `CC(C)OC(=O)NC(C(=O)NC(C)c1nc2ccc(F)cc2s1)C(C)C` (centres undefined) [Benthiavalicarb-Isopropyl] it was 14.5 min.
As for `CC(=O)Nc1ccc(OC2OC(C(=O)O)C(O)C(O)C2O)cc1` (centres undefined) [acetaminophen_glucuronide], the figure is 3.8 min; as for `Cc1ccc2n[nH]nc2c1` [5-Methyl-1-H-benzotriazol], 9.89 min; as for `Cc1cc(Cl)ccc1N=CN(C)C` [Chlordimeform], 8.37 min.
As to `C[N+](C)(C)C` [Tetramethylammonium cation], the LC retention time was 2 min.
On to `O=C(O)/C=C/c1cccc(O)c1` [trans-3-Hydroxycinnamic acid], for which the LC retention time is 7.5 min.
As for `CC(C)Nc1nc(Cl)nc(NC(C)C)n1` [Propazin], the figure is 14 min; as for `c1ccc2[nH]ncc2c1` [Indazole], 4.3 min; as for `O=[N+]([O-])c1ccc(C2OC2c2ccc([N+](=O)[O-])cc2S(=O)(=O)O)c(S(=O)(=O)O)c1` (centres undefined), 11.5 min.
As for `CCCCOc1ccc(CC(=O)NO)cc1` [Bufexamac], the figure is 12.6 min; as for `CC(C)(c1ccccc1)c1cc(-n2nc3ccccc3n2)c(O)c(C(C)(C)c2ccccc2)c1` [UV-234], 16.6 min.
Consider `Cc1csc(C)c1NC(=O)CCl` [Dimethenamid-N-dealkylation], for which the LC retention time was 10.2 min.
As for `CC(c1ccc(O)cc1)c1ccc(O)cc1` [Bisphenol E], the figure is 11.5 min; as for `CCCC(C)(C)C(=O)Nc1ccc(Cl)cc1` [Monalide], 15 min; as for `Cc1ccc(OP(=O)(Oc2ccccc2)Oc2ccc(C)cc2)cc1` [Ditolyl phenyl phosphate], 14 min.
As for `O=C(O)CNC(=O)c1ccccc1` [Hippuric_acid], the figure is 7.2 min.
As for `COc1nc(C)nc(N)n1` [2-Amino-4-methoxy-6-methyl-1.3.5-triazine (MMT)], the figure is 5.15 min; as for `Oc1ccc(C2(c3ccc(O)cc3)CCCCC2)cc1` [Bisphenol Z], 16 min.
With `CCCC(=O)Nc1ccc(OCC(O)CNC(C)C)c(C(C)=O)c1` (centres undefined) [Acebutolol], the LC retention time was 15.9 min.
In the case of `COc1ccc2c3c1OC1C(O)CCC4C(C2)N(C)CCC341` (centres undefined) [Dihydrocodein] it was 6.74 min; in that of `O=c1cc(-c2ccccc2)c2c(O)cc(O)cc2o1` [5,7-Dihydroxy-4-phenylcoumarin], 12.1 min.

(Values after the RepoRT retention time repository (doi:10.1021/acs.analchem.1c00972).)
